BigSolDB 2.1

Cc1c(N)cccc1C(=O)O
solubility (mole fraction)
Conditions	288.15 K	293.15 K	298.15 K	303.15 K	308.15 K	313.15 K	318.15 K	323.15 K	328.15 K
in acetonitrile	0.0004	0.000499	0.000728	0.000986	0.00126	0.0017	0.00202	0.00251	0.00307
in ethanol	0.00373	0.00422	0.00496	0.00628	0.00749	0.00891	0.0105	0.0124	0.0151
in ethyl acetate	0.000961	0.00107	0.00135	0.00173	0.0022	0.00283	0.0035	0.00436	0.00524
in isobutanol	0.00112	0.00132	0.00191	0.00254	0.00322	0.00427	0.00534	0.0069	0.00839
in isopropanol	0.00196	0.00228	0.00298	0.00386	0.00494	0.00629	0.0079	0.00991	0.0123
in methanol	0.00532	0.0059	0.00682	0.00844	0.00979	0.0115	0.0136	0.0159	0.0178
in methyl acetate	0.000975	0.00127	0.00179	0.0024	0.00292	0.00347	0.00428	0.00514	0.00571
in n-butanol	0.00236	0.00269	0.00333	0.00442	0.00535	0.00659	0.0079	0.00962	0.0115
in n-propanol	0.00245	0.00277	0.00341	0.00444	0.00542	0.00672	0.00824	0.0101	0.0123
in n-propyl acetate	0.000796	0.000942	0.00109	0.00142	0.00176	0.00225	0.00286	0.00368	0.0047
in sec-butanol	0.00178	0.00209	0.00285	0.00388	0.00513	0.00675	0.00858	0.0111	0.0138
in water	0.000581	0.000588	0.00062	0.000669	0.000718	0.00079	0.000887	0.00098	0.00105
